The assay addresses human recombinant LRRK2 protein (Homo sapiens (Human), UniProt Q5S007). The assay can be described thus: LRRK2 Kinase Activity Assay (ADP-Glo). The note with it: LRRK2 wt; LRRKtide peptide and ATP substrates; 1h-incubation at 37° C. The format is biochemical. As to the method: LRRK2 Kinase reactions were carried out in 384-well white polystyrene plates in a final volume of 6 μl using ADP-Glo™ Kinase Assay kit (Promega Corp.). Compound and substrates (LRRKtide peptide and ATP) in assay buffer were first dispensed in wells. Kinase reaction was then started by the addition of human recombinant LRRK2 protein. After 1h-incubation at 37° C., the enzymatic reaction was stopped by the addition of 6 μl of ADP-Glo Reagent-1 and an additional 40-minutes incubation at 23° C. (residual ATP depletion). A final 30-minutes incubation after 12 μL reagent-2 addition (ADP to ATP conversion and luciferin/luciferase reaction) was performed before luminescent signal acquisition (EnVision™ multimode plate reader-PerkinElmer, Inc.). Data from 10 individual concentrations of tested compounds (N=2) were fitted (XLfit™-ID Business Solutions Ltd) to deliver IC50s (compound concentration leading to 50% inhibition of reference enzymatic activity).
The compounds are dissolved to 5 mM in DMSO. When needed, solutions are sonicated in a bath sonicator.
Table 2 provides the IC50 values of the compounds according to the invention, obtained using the above-mentioned kinase assay. Activities are represented as +++, ++ and +, having the following meanings: • +++ means IC50<10 nM • ++ means 10 nM≤IC50<100 nM • + means 100 nM≤IC50<1 μM.

Where only a bound is given, the exact number is not on record here.

We go through 22 molecules from patent US20230357269A1 (LES LABORATOIRES SERVIER, priority 2020, published 2023).

Sequence of human recombinant LRRK2 protein (Q5S007 whole entry): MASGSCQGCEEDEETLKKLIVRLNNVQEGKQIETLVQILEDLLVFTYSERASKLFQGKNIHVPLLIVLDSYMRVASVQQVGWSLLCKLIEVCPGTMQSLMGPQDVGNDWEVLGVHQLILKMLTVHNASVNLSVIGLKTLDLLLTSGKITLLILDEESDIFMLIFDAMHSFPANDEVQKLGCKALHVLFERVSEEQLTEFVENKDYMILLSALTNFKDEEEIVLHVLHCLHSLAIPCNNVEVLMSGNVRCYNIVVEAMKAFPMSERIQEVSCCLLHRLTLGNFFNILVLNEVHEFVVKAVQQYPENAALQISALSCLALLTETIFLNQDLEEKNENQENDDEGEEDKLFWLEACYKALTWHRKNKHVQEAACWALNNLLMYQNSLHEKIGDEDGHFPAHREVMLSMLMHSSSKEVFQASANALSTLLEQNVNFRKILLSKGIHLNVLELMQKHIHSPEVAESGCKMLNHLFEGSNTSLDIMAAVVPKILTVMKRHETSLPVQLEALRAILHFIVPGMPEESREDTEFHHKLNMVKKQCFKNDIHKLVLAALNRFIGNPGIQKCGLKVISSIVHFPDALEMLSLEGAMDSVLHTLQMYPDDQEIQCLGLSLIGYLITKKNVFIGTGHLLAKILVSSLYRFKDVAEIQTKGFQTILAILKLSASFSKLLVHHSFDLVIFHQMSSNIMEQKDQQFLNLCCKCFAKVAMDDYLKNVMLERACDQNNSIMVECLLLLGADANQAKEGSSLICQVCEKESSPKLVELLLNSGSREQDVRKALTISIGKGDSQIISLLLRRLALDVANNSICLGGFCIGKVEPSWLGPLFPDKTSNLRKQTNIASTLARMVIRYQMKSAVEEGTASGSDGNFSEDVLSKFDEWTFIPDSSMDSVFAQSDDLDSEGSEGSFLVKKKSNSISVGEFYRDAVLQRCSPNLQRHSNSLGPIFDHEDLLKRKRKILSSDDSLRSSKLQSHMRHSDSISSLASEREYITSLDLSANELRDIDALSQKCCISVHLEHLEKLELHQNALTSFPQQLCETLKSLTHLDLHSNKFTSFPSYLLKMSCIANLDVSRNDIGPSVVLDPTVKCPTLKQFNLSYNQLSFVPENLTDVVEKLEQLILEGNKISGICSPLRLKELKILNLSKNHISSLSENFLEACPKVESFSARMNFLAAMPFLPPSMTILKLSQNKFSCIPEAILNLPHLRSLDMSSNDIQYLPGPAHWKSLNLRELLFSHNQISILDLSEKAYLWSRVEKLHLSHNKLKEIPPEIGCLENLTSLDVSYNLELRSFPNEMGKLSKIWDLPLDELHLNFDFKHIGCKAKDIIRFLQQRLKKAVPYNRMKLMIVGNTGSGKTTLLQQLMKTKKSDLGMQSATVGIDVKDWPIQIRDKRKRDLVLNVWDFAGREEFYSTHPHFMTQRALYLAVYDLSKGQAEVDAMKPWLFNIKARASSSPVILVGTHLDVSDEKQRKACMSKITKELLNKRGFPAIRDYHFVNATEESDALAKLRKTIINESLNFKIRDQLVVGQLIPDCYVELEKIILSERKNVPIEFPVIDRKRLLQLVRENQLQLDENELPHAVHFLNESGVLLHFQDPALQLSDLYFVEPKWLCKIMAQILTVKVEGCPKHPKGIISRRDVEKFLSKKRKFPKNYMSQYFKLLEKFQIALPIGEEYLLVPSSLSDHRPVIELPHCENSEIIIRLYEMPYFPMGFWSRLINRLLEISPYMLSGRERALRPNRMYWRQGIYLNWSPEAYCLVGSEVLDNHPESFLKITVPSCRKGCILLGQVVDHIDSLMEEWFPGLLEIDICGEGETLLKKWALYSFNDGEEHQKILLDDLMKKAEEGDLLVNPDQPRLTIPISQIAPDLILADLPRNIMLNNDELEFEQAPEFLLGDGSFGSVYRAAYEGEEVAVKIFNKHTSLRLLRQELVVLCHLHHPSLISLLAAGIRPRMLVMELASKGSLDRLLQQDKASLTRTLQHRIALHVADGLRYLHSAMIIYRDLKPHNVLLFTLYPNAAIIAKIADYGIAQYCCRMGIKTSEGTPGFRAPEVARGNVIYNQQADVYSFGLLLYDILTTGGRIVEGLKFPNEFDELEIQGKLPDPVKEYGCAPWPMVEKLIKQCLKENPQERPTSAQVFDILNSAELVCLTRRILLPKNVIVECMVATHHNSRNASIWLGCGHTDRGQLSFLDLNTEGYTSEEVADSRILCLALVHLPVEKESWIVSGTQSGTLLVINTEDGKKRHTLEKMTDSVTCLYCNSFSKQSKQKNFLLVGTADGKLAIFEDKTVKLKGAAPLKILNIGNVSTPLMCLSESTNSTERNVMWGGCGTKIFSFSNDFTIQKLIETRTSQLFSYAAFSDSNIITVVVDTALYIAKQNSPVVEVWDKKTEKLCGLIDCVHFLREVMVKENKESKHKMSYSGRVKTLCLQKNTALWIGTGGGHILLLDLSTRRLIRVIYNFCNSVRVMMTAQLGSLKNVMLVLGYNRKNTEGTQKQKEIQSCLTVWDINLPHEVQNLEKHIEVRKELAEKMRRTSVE

As to `Cc1cc2cc(c1)-c1n[nH]c3ccc(cc13)OCCCN(C)C(=O)OC2` [Example 54, 4,10-dimethyl-8,14-dioxa-10,19,20-triazatetracyclo[13.5.2.1^2,6.0^18,21]tricosa-1(20),2,4,6(23),15,17,21-heptaen-9-one], the IC50 (commonly the concentration that inhibits the measured activity by half) is under 10 nM.
For the molecule `CN(C)Cc1cc2cc(c1)-c1n[nH]c3ccc(cc13)OCCCNC(=O)OC2` [Example 53, 4-[(dimethylamino)methyl]-8,14-dioxa-10,19,20-triazatetracyclo[13.5.2.1^2,6.0^18,21]tricosa-1(20),2,4,6(23),15,17,21-heptaen-9-one], the IC50 lay in the range of 10 to 100 nM.
In the case of `CC1OC(=O)NCC[C@@H](C)Oc2ccc3[nH]nc(c3c2)-c2ccnc1n2` (single isomer, unassigned) [Example 130, (7R,13R)- or (7S,13R)-7,13-dimethyl-8,14-dioxa-5,10,19,20,23-penta azatetracyclo[13.5.2.1^2,6.0^18,21]tricosa-1(20),2,4,6(23),15,17,21-heptaen-9-one], the IC50 fell in the range of 10 to 100 nM.
`CC1OC(=O)NCC[C@@H](C)Oc2ccc3[nH]nc(c3c2)-c2ccnc1n2` (single isomer, unassigned) [Example 131, (7R,13R)- or (7S,13R)-7,13-dimethyl-8,14-dioxa-5,10,19,20,23-penta azatetracyclo[13.5.2.1^2,6.0^18,21]tricosa-1(20),2,4,6(23),15,17,21-heptaen-9-one]: the IC50 is under 10 nM.
Take `O=C1NC[C@@H](F)COc2ccc3[nH]nc(c3c2)-c2cncc(n2)CO1` [Example 172, (12R)-12-fluoro-8,14-dioxa-4,10,19,20,23-pentaazatetracyclo[13.5.2.1^2,6.0^18,21]tricosa-1(20),2(23),3,5,15,17,21-heptaen-9-one]: the 50% inhibitory concentration (IC50) is under 10 nM.
Turning to `C[C@@H]1CCNC(=O)OCCn2cc(cc2C#N)-c2n[nH]c3ccc(cc23)O1` [Example 151, (13R)-13-methyl-9-oxo-8,14-dioxa-5,10,19,20-tetraazatetracyclo[13.5.2. 1^2,5.0^18,21]tricosa-1(20),2(23),3,15(22),16,18(21)-hexaene-4-carbonitrile], the concentration for half-maximal inhibition (IC50) was under 10 nM.
`CCC1OC(=O)NCCCOc2ccc3[nH]nc(c3c2)-c2cccc1c2` (stereo not shown) [Example 104, 7-ethyl-8,14-dioxa-10,19,20-triazatetracyclo[13.5.2.1^2,6.0^18,21]tricosa-1(20),2,4,6(23),15,17,21-heptaen-9-one]: the IC50 fell in the range of 10 to 100 nM.
With `O=C1NCCCOc2ccc3[nH]nc(c3c2)-c2cccc(c2)CO1` [Example 5, 8,14-dioxa-10,19,20-triazatetracyclo[13.5.2.1^2,6.0^18,21]tricosa-1(20),2,4,6(23), 15,17,21-heptaen-9-one], the IC50 is under 10 nM.
Take `CCN(CC)c1cc2cc(c1)-c1n[nH]c3ccc(cc13)OCCCNC(=O)OC2` [Example 47, 4-(diethylamino)-8,14-dioxa-10,19,20-triazatetracyclo[13.5.2.1^2,6.0^18,21]tricosa-1(20),2,4,6(23),15,17,21-heptaen-9-one]: the IC50 was under 10 nM.
With `O=C1NCCCOc2ccc3[nH]nc(c3c2)-c2nc(cs2)CCO1` [Example 135, 8,14-dioxa-3-thia-10,19,20,23-tetraazatetracyclo[13.5.2.1^2,5.0^18,21]tricosa-1(20),2(23),4,15,17,21-hexaen-9-one], the IC50 was under 10 nM.
For the molecule `C[C@@H]1CCNC(=O)OCc2cc(ccn2)-c2n[nH]c3ccc(cc23)O1` [Example 117, (13R)-13-methyl-8,14-dioxa-5,10,19,20-tetraazatetracyclo[13.5.2.1^2,6.0^18,21]tricosa-1(20),2,4,6(23),15,17,21-heptaen-9-one], the IC50 was under 10 nM.
Turning to `COc1cc2nc(c1)-c1n[nH]c3ccc(cc13)O[C@H](C)CCNC(=O)OC2` [Example 127, (13R)-4-methoxy-13-methyl-8,14-dioxa-10,19,20,23-tetraazatetracyclo[13.5.2.1^2,6.0^18,21]tricosa-1(20),2,4,6(23),15,17,21-heptaen-9-one], the IC50 is under 10 nM.
With `C[C@@H]1CCNC(=O)OCc2cncc(c2)-c2n[nH]c3ccc(nc23)O1` [Example 164, (13R)-13-methyl-8,14-dioxa-4,10,19,20,22-pentaazatetracyclo[13.5.2. 1^2,6.0^18,21]tricosa-1(20),2(23),3,5,15,17,21-heptaen-9-one] the figure was under 10 nM; with `O=C1NC[C@H](F)COc2ccc3[nH]nc(c3c2)-c2cncc(n2)CO1` [Example 171, (12S)-12-fluoro-8,14-dioxa-4,10,19,20,23-pentaazatetracyclo[13.5.2.1^2,6.0^18,21]tricosa-1(20),2(23),3,5,15,17,21-heptaen-9-one], under 10 nM; with `C[C@@H]1CCNC(=O)OCc2cccc(c2)-c2n[nH]c3cc(Cl)c(cc23)O1` [Example 138, (13R)-16-chloro-13-methyl-8,14-dioxa-10,19,20-triazatetracyclo[13.5.2.1^2,6.0^18,21]tricosa-1(20),2,4,6(23),15,17,21-heptaen-9-one], under 10 nM.
In the case of `CC1CCCN(c2cc3cc(c2)-c2n[nH]c4ccc(cc24)OCCCNC(=O)OC3)C1` (stereo not shown) [Example 58, 4-(3-methylpiperidin-1-yl)-8,14-dioxa-10,19,20-triazatetracyclo[13.5.2.1^2,6.0^18,21]tricosa-1(20),2,4,6(23),15,17,21-heptaen-9-one], the IC50 is under 10 nM.
For `CN1CC=C(c2cc3cc(c2)-c2n[nH]c4ccc(cc24)OCCCNC(=O)OC3)CC1` [Example 39, 4-(1-methyl-1,2,3,6-tetrahydropyridin-4-yl)-8,14-dioxa-10,19,20-triazatetra cyclo[13.5.2.1^2,6.0^18,21]tricosa-1(20),2,4,6(23),15,17,21-heptaen-9-one], the IC50 is under 10 nM.
The same measure for `C[C@H]1OC(=O)NCCCOc2ccc3[nH]nc(c3c2)-c2cccc1c2` [Example 68, (7R)-7-methyl-8,14-dioxa-10,19,20-triazatetracyclo[13.5.2.1^2,6.0^18,21]tricosa-1(20),2(23),3,5,15(22),16,18(21)-heptaen-9-one]: under 10 nM; for `CC1CCCN1c1cc2cc(c1)-c1n[nH]c3ccc(cc13)OCCCNC(=O)OC2` (stereo not shown) [Example 76, 4-(2-methylpyrrolidin-1-yl)-8,14-dioxa-10,19,20-triazatetracyclo[13.5.2.1^2,6.0^18,21]tricosa-1(20),2(23),3,5,15(22),16,18(21)-heptaen-9-one]: under 10 nM; for `O=C1NCCCOc2ccc3[nH]nc(c3c2)-c2cc(cc(N3CCCC3)c2)CO1` [Example 12, 4-(pyrrolidin-1-yl)-8,14-dioxa-10,19,20-triazatetracyclo[13.5.2.1^2,6.0^18,21]tricosa-1(20),2,4,6(23),15,17,21-heptaen-9-one]: under 10 nM.
On to `C[C@@H]1CCNC(=O)O[C@H](C)c2cccc(c2)-c2n[nH]c3ccc(cc23)O1` [Example 96, (7R,13R)-7,13-dimethyl-8,14-dioxa-10,19,20-triazatetracyclo[13.5.2.1^2,6.0^18,21]tricosa-1(20),2(23),3,5,15(22),16,18(21)-heptaen-9-one], for which the IC50 is under 10 nM.
`C[C@@H]1CCNC(=O)OCCc2nc(cn2C)-c2n[nH]c3ccc(cc23)O1` [Example 161, (13R)-4,13-dimethyl-8,14-dioxa-4,10,19,20,23-pentaazatetracyclo[13.5.2.1^2,5.0^18,21]tricosa-1(20),2,5(23),15(22),16,18(21)-hexaen-9-one]: the IC50 lay in the range of 10 to 100 nM.
